This passage reports IC50 results from patent US8512995B2, “DNA encoding polypeptide involved in biosynthesis of herboxidiene” (Eisai R&D Management Co., Ltd., priority 2008, dated 2013).

This assay has as its system WiDr human colon cancer cells. Nature of the assay: Proliferation inhibitory action on WiDr human colon cancer cells (CellTiter-Glo luminescence). The class given is cell-based. The conditions noted are these: 72 h, 3 days culture, CellTiter-Glo luciferase luminescence as indicator of living cells. The method, then: WiDr human colon cancer cells, which had been cultured in an RPMI1640 medium (manufactured by SIGMA) containing 10% fetal bovine serum, penicillin (100 units/mL) and streptomycin (100 μg/mL), were dispersed on a 96-well plate in an amount of 2×10^3 cells/90 μl/well. The cells were cultured in a CO2 incubator overnight. Thereafter, 10 μl of the aforementioned culture solution containing the compound HX354 or HX355 of 3-fold dilution series used in the aforementioned examples was added to the culture, and the mixture was then cultured. Three days later, 50 μl of CellTiter-Glo Luminescent Cell Viability Assay (Promega) was added to the culture, the mixture was then shaken for 2 minutes, and it was then left at rest for 15 minutes. Thereafter, luciferase luminescence was measured with a luminometer, and the measured luminescence was used as an indicator for the number of living cells
The concentrations (IC50 values) of HX354 and HX355, where the proliferation of the WiDr human colon cancer cells was inhibited by were obtained.

Turning to `CCC(OC)C(C)C1OC1(C)CC(C)/C=C/C=C(\C)C1OC(CC(=O)O)CCC1C` (centres unmarked) [HX354], inhibition was half-maximal at 91 nM (IC50). This counts as double-digit nanomolar.

`CCC(O)C(C)C1OC1(C)CC(C)/C=C/C=C(\C)C1OC(CC(=O)O)CCC1C` (centres unmarked) [HX355]: the IC50 is 168 nM.

Usually IC50 stands for the concentration that inhibits the measured activity by half. Lower therefore signals inhibition by little substance.
